This experiment concerns the target Trm6p/Trm61p complex (yeast tRNA m^1A58 Mtase) (Saccharomyces cerevisiae, UniProt P46959). The experiment in a line: biochemical.

Sequence of Trm6p/Trm61p complex (yeast tRNA m^1A58 Mtase) (P46959 whole entry): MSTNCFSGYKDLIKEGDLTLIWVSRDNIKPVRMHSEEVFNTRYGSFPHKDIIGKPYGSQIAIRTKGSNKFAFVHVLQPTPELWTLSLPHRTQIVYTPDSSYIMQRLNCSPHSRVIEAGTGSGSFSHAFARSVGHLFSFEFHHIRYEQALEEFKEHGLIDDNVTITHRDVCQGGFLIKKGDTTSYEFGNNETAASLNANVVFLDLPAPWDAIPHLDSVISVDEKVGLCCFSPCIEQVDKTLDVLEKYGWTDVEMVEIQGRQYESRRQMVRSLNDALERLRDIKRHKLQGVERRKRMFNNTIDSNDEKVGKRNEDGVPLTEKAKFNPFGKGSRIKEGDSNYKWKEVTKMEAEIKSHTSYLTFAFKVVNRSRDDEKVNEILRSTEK
Sequence of Trm6p/Trm61p complex (yeast tRNA m^1A58 Mtase) (P41814 whole entry partner): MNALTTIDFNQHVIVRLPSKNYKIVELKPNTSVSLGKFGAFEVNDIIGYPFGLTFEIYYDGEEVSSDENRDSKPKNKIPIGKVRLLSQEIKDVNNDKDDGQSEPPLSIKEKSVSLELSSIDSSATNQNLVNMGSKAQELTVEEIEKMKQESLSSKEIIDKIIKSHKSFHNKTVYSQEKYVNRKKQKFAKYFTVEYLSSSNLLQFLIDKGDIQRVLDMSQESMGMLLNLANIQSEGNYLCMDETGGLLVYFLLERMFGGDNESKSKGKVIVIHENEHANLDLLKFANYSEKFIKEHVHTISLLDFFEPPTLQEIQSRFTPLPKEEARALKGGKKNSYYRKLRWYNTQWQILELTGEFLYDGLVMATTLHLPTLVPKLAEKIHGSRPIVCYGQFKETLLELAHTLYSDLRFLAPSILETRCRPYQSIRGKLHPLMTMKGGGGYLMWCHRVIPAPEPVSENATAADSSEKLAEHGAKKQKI

`C[S+](CC[C@H](N)C(=O)O)C[C@H]1O[C@@H](n2cnc3c(N)ncnc32)[C@H](O)[C@@H]1O` (stereo partly shown) [AdoMet] showed a Kd of 376 ± 73 µM.

The values are drawn from publication PMC2175304 (Nucleic Acids Research, 2007).
